Residues, ends and D or L forms follow the SMILES beside them.
Experiments:
RASA1-N SH2 domain = molecular target: T1, RASA1-N SH2 domain (Homo sapiens, UniProt P20936); assay: FP saturation binding assay
T1 sequence (P20936 181-272 limits assumed): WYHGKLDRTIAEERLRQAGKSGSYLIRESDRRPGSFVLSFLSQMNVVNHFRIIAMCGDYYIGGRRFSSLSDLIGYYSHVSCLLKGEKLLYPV

[1] = molecular target: PIK3R2-NC tandem SH2 domains (Homo sapiens, UniProt O00459); assay: FP saturation binding assay
[2] = molecular target: T2, PIK3R3-NC tandem SH2 domains (Homo sapiens, UniProt Q92569); assay: FP saturation binding assay; details: Protein PIK3R3-NC; FP saturation binding, high-confidence ErbB interactions; mean over replicate hits
T2 construct: the tandem protein was included in our analysis with all internal amino acids linking the domains; 6X His; thioredoxin; made in house; host or cells: E. coli BL21(DE3)pLysS
Procedure, shortened: (§1)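 Rhodamine-labeled peptides (10 nM final) were titrated with 12 SH2 domain concentrations (0.002–10 µM) in 20 mM HEPES, 100 mM KCl, 0.1% Tween-20, 5 mM DTT, pH 7.8. After 20 min at room temperature in the dark, FP (ex 530/em 555 nm) was read. KDs came from nonlinear least-squares fits.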

PIK3R2-N SH2 domain = PIK3R2-N SH2 domain (Homo sapiens, UniProt O00459); assay: FP saturation binding assay
PTPN11-N SH2 domain = molecular target: T3, PTPN11-N SH2 domain (Homo sapiens, UniProt Q06124); assay: FP saturation binding assay
T3 sequence (Q06124 6-102 limits assumed): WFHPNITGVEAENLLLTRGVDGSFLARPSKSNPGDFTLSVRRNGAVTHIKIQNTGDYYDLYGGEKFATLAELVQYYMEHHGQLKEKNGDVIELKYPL

SH2D1B SH2 domain = molecular target: T4, SH2D1B SH2 domain (Homo sapiens, UniProt O14796); assay: FP saturation binding assay
T4 sequence (O14796 5-101 limits assumed): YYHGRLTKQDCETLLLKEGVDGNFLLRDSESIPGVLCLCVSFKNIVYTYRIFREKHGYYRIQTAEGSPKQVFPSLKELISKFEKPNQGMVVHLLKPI

LCK SH2 domain = molecular target: T5, LCK SH2 domain (Homo sapiens, UniProt P06239); assay: FP saturation binding assay; details: Protein LCK; FP saturation binding, high-confidence ErbB interactions; mean over replicate hits
T5 construct: 93 SH2 and 2 PTB domain-containing constructs; 6X His; thioredoxin; made in house; host or cells: E. coli BL21(DE3)pLysS
Procedure, shortened: as §1

[3] = molecular target: T6, RASA1-NC tandem SH2 domains (Homo sapiens, UniProt P20936); assay: FP saturation binding assay; details: Protein RASA1-NC; FP saturation binding, high-confidence ErbB interactions; mean over replicate hits
T6 construct: the tandem protein was included in our analysis with all internal amino acids linking the domains; 6X His; thioredoxin; made in house; host or cells: E. coli BL21(DE3)pLysS
T6 sequence (P20936 181-441 limits assumed): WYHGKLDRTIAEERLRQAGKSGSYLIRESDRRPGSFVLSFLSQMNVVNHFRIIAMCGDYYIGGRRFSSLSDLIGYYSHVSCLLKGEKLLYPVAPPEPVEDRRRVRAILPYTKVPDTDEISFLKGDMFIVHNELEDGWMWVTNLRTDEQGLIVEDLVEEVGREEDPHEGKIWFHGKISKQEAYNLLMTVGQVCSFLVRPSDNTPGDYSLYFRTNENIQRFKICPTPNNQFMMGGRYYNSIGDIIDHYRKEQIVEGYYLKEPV
Procedure, shortened: as §1

YES1 SH2 domain = molecular target: T7, YES1 SH2 domain (Homo sapiens, UniProt P07947); assay: FP saturation binding assay; details: Protein YES1; FP saturation binding, high-confidence ErbB interactions; mean over replicate hits
T7 construct: 6X His; thioredoxin; made in house; host or cells: BL21(DE3)pLysS E. coli
Procedure, shortened: as §1

PTK6 SH2 domain = molecular target: T8, PTK6 SH2 domain (Homo sapiens, UniProt Q13882); assay: FP saturation binding assay; details: Protein PTK6; FP saturation binding, high-confidence ErbB interactions; mean over replicate hits
T8 construct: from the PTK6 SH2 domain; 6X His; thioredoxin; made in house; host or cells: E. coli BL21(DE3)pLysS
Procedure, shortened: as §1

PIK3R3-N SH2 domain = molecular target: T9, PIK3R3-N SH2 domain (Homo sapiens, UniProt Q92569); assay: FP saturation binding assay; details: Protein PIK3R3-N; FP saturation binding, high-confidence ErbB interactions; mean over replicate hits
T9 construct: 6X His; thioredoxin; made in house; host or cells: E. coli BL21(DE3)pLysS
Procedure, shortened: as §1

PIK3R1-N SH2 domain = molecular target: T10, PIK3R1-N SH2 domain (Homo sapiens, UniProt P27986); assay: biochemical; assay type: binding; details: protein PIK3R1-N; FP, high-confidence ErbB interactions; mean of replicate hits
T10 construct: thioredoxin; made in house; host or cells: E. coli BL21(DE3)pLysS

GRB7 SH2 domain = GRB7 SH2 domain (Homo sapiens, UniProt Q14451); assay: FP saturation binding assay; details: Mean KD (μM), protein GRB7; FP, high-confidence ErbB interactions; mean of replicate hits
PIK3R1-C SH2 domain = molecular target: T11, PIK3R1-C SH2 domain (Homo sapiens, UniProt P27986); assay: FP saturation binding assay; details: protein PIK3R1-C, high-confidence ErbB interactions, mean of replicate hits
T11 construct: 6X His; thioredoxin; made in house; host or cells: E. coli BL21(DE3)pLysS
Procedure, shortened: as §1

Sequence of PIK3R2-N SH2 domain (O00459 330-425 limits assumed): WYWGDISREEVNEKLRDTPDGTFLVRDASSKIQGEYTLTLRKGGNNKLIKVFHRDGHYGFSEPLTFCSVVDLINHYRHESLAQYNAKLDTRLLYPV
Sequence of PIK3R2-NC tandem SH2 domains (O00459 330-716 limits assumed): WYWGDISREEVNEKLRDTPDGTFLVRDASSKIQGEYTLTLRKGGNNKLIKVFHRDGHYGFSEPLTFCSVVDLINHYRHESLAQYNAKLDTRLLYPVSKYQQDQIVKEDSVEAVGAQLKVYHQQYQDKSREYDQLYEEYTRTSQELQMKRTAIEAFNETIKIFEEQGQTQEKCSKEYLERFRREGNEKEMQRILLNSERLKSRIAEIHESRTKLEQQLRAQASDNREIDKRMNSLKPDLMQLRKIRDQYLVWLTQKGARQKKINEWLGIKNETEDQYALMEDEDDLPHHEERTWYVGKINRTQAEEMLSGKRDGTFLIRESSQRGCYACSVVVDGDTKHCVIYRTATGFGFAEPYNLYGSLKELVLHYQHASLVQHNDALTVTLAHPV
T5 sequence (P06239 127-224 limits assumed): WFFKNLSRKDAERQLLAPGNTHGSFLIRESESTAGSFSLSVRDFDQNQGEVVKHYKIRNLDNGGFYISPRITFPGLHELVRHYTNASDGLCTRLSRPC
T11 sequence (P27986 624-718 limits assumed): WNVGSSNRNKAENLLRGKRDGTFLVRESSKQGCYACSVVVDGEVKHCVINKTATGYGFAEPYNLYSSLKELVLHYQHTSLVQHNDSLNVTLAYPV
T8 sequence (Q13882 78-170 limits assumed): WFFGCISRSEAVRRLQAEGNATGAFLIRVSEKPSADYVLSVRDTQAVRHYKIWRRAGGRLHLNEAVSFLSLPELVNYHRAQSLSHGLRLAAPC
T7 sequence (P07947 158-255 limits assumed): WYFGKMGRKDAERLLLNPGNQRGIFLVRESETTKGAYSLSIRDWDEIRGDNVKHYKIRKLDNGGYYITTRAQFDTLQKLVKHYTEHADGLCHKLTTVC
T10 sequence (P27986 333-428 limits assumed): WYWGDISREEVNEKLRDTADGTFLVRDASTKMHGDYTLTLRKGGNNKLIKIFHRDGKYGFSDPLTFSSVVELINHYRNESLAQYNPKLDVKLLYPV
Sequence of GRB7 SH2 domain (Q14451 431-527 limits assumed): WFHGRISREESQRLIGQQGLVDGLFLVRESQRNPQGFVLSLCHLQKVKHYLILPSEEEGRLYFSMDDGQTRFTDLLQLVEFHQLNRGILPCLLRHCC

CSCC[C@H](NC(=O)[C@@H](NC(=O)[C@H](Cc1ccc(OP(=O)(O)O)cc1)NC(=O)[C@H](C)NC(=O)[C@H](CCC(=O)O)NC(=O)[C@H](CC(=O)O)NC(=O)[C@@H](N)CC(C)C)C(C)C)C(=O)N[C@@H](C)C(=O)N[C@@H](CO)C(=O)N[C@H](C(=O)N[C@@H](CC(=O)O)C(=O)N[C@@H](CC(N)=O)C(=O)N[C@@H](CC(=O)O)C(=O)O)C(C)C [ErbB1 764 13-mer] (HELM PEPTIDE1{L.D.E.A.[O=C([C@H](Cc1ccc(OP(=O)(O)O)cc1)N[*:1])[*:2]].V.M.A.S.V.D.N.D}$$$$V2.0)
Kd (RASA1-N SH2 domain): 9.7 µM | Kd [1]: 3.07 µM | Kd [2]: 1.91 µM | Kd (PIK3R2-N SH2 domain): 2.36 µM

CSCC[C@H](NC(=O)[C@H](CC(C)C)NC(=O)[C@H](C)NC(=O)[C@H](CCCNC(=N)N)NC(=O)[C@H](Cc1ccc(OP(=O)(O)O)cc1)NC(=O)[C@H](Cc1ccccc1)NC(=O)[C@H](CC(N)=O)NC(=O)[C@H](CO)NC(=O)[C@@H](N)CC(=O)O)C(=O)N[C@@H](CC(=O)O)C(=O)N[C@@H](CCC(=O)O)C(=O)N[C@@H](CCC(=O)O)C(=O)N[C@@H](CC(=O)O)C(=O)O [ErbB1 998 13-mer] (HELM PEPTIDE1{D.S.N.F.[O=C([C@H](Cc1ccc(OP(=O)(O)O)cc1)N[*:1])[*:2]].R.A.L.M.D.E.E.D}$$$$V2.0)
Kd (PTPN11-N SH2 domain): 13.1 µM | Kd (RASA1-N SH2 domain): 2.85 µM | Kd (SH2D1B SH2 domain): 3.98 µM | Kd (LCK SH2 domain): 5.79 µM | Kd [3]: 12.6 µM | Kd (YES1 SH2 domain): 7.05 µM

CC[C@H](C)[C@H](NC(=O)[C@H](CC(C)C)NC(=O)[C@H](Cc1ccc(OP(=O)(O)O)cc1)NC(=O)[C@H](CCC(=O)O)NC(=O)[C@H](CC(=O)O)NC(=O)[C@H](C)NC(=O)[C@@H](N)CC(=O)O)C(=O)N1CCC[C@H]1C(=O)N[C@@H](CCC(N)=O)C(=O)N[C@@H](CCC(N)=O)C(=O)NCC(=O)N[C@@H](Cc1ccccc1)C(=O)N[C@@H](CC(=O)O)C(=O)O [ErbB1 1016 13-mer]
Kd (RASA1-N SH2 domain): 1.67 µM | Kd [1]: 2.43 µM | Kd (PTK6 SH2 domain): 3.04 µM | Kd (PIK3R3-N SH2 domain): 3.21 µM | Kd [3]: 1.1 µM | Kd (PIK3R2-N SH2 domain): 2.48 µM

CSCC[C@H](NC(=O)[C@H](Cc1ccc(O)cc1)NC(=O)[C@H](CCC(=O)O)NC(=O)[C@H](Cc1ccc(OP(=O)(O)O)cc1)NC(=O)[C@H](CC(=O)O)NC(=O)[C@H](CCC(=O)O)NC(=O)[C@H](CC(=O)O)NC(=O)[C@@H]1CCCN1)C(=O)N[C@@H](CC(N)=O)C(=O)N[C@@H](CCCNC(=N)N)C(=O)N[C@@H](CCC(N)=O)C(=O)N[C@@H](CCCNC(=N)N)C(=O)N[C@@H](CC(=O)O)C(=O)O [ErbB3 1260 13-mer] (HELM PEPTIDE1{P.D.E.D.[O=C([C@H](Cc1ccc(OP(=O)(O)O)cc1)N[*:1])[*:2]].E.Y.M.N.R.Q.R.D}$$$$V2.0)
Kd (PIK3R1-N SH2 domain): 0.48 µM | Kd (GRB7 SH2 domain): 0.1 µM | Kd (PIK3R1-C SH2 domain): 0.47 µM

From PMC3433420 (PLoS ONE, 2012)
